Values belong to the compound of their own block, whether it stands above or below them.
Columns and labels:
HDAC6 = molecular target: T1, HDAC6 (Homo sapiens, UniProt Q9UBN7); experiment: HDAC6 enzyme activity, FLUOR DE LYS fluorometric kit; type: biochemical; conditions: mean ± SEM; read-out: IC50 HDAC6 Inhibitory Activity
T1 construct: purchased Enzo Life Sciences (Enzo Biochem, New York, NY, USA)
T1 sequence (Q9UBN7 1-1215): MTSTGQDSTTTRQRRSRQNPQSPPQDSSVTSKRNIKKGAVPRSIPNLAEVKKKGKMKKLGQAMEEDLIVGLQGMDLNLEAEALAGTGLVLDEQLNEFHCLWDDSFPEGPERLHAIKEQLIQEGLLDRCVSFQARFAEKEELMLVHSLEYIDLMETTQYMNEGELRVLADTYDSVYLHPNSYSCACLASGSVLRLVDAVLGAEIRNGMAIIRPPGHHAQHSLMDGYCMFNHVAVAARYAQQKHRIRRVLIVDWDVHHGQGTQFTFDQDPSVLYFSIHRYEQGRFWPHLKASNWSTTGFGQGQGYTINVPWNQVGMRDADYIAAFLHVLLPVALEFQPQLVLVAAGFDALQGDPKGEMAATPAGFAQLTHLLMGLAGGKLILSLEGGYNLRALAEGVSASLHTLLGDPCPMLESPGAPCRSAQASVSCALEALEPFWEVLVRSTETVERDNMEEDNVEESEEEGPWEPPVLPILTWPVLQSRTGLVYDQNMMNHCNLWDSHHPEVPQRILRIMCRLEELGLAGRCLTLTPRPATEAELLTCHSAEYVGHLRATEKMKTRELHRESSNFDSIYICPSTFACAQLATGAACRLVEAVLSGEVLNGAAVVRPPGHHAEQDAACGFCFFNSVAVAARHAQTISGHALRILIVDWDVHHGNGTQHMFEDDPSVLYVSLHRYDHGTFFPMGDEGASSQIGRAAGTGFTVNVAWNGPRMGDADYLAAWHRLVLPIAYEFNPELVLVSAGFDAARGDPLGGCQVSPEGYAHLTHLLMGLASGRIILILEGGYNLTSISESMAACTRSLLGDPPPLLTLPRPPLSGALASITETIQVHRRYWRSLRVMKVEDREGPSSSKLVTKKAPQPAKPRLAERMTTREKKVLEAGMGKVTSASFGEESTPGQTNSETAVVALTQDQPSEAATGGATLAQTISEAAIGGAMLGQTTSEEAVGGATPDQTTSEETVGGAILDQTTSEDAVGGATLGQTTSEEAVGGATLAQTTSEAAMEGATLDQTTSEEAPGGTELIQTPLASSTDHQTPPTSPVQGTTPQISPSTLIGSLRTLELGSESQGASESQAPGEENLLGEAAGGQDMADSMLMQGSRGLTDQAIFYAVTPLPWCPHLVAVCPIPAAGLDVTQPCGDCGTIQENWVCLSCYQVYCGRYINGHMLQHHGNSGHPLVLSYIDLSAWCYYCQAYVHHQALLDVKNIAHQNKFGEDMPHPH

HEK 293 cells = experiment: MTT cell viability, HEK 293; type: cell-based; conditions: Homo sapiens, HEK293; HEK-293, MTT test
Method: The effect of the hydroxamic acids on the viability of cells obtained from human embryonic kidneys, HEK 293, as well as the native form of human neuroblastoma, SH-SY5Y, was evaluated in the MTT test. Using a multifunctional flatbed analyzer, Cytation™3 (BioTek Instruments, Inc., Winooski, VT, USA), the optical density was determined at a wavelength of 530 nm. Based on the dose-dependent curves, the concentration values leading to 50% inhibition of cell population growth (IC50) were calculated.
Due to the fact that most compounds of the class of hydroxamic acids have high cytotoxic activity and are mainly used as anticancer drugs, their use as neuroprotective drugs is limited. Since the goal of our work was to search for agents for the pharmacological correction of neurodegenerative diseases, a necessary part of the biological activity study of the synthesized hydroxamic acids was to determine their effect on the survival of cell cultures. In our work, we used neuron-like neuroblastoma cells SH-SY5Y and a healthy cell line isolated from the human embryonic kidney, HEK 293.

5xFAD transgenic mice = experiment: Open field test in 5xFAD mice; type: in vivo; conditions: 15 mg/kg i.p. for 20 days, 11-month-old male 5xFAD mice
Method: All animal procedures were approved by the Animal Care and Use Committee of IPAC RAS. For in vivo studies, 11-month-old male mice of the 5xFAD line (Tg(APPSwFlLon,PSEN1*M146L*L286V) 6799Vas/J) were used. The animals were housed in cages with free access to water and food in a room with a 12 h/12 h light–dark cycle, at a temperature of 23 ± 1 °C and humidity of 50 ± 5%. Before the series of experiments, animals were randomly divided into four groups (n = 8 per group): (1) wild-type group (C57BL6/j mouse line); (2) 5xFAD group; (3) 5xFAD + 15 group; and (4) 5xFAD + 25 group.
Both compounds 15 and 25 were dissolved in saline solution and DMSO (10%) immediately before use and intraperitoneally administered to animals for 20 days at a dose of 15 mg/kg body weight for experiments. In the control group, the vehicle solution (saline and DMSO (10%), intraperitoneal) was administered with the same time schedule.
The open field box consisted of a square, non-transparent, grey box (40 cm × 40 cm × 40 cm). Illumination intensity was kept at 50 lux. During a session, a single animal was allowed to explore the empty open field, and its baseline level of activity was measured. The session lasted for 10 min (Figure 5A). […] The number of standing events was manually counted in a blind manner by one observer. […]

[1] = DPPH test of antiradical activity; conditions: substances at 100 μM, mean ± SEM
Method: The DPPH test was used to examine antiradical activity based on the ability of a stable chromogen radical of 2,2-diphenyl-1-picrylhydrazyl (DPPH) to remove a hydrogen atom, which is accompanied by a change in the absorption maximum in the electronic absorption spectra. The amount of reduced DPPH was measured using a Cytation ™ 3 multifunctional plate analyzer (BioTek Instruments, Inc., Winooski, VT, USA) at a wavelength of 517 nm.
The antiradical activity of the test compounds was evaluated by the DPPH test, based on the ability of antioxidants to donate an electron to the stable chromogen radical DPPH, converting it into a nonradical form and neutralizing its activity. […] The chromogenic free radical DPPH used in this test has a large size, and substances even with a similar chemical structure may have different antiradical properties due to spatially difficult access.

SMILES: O=C(CCCCCCC(=O)NC1C2CC3CC(C2)CC1C3)NO (centres unmarked) [compound 15, N^1-(Adamant-2-yl)-N^8-Hydroxyoctanediamide]
IC50 (HDAC6): 0.96 ± 0.01 µM
IC50 (HEK 293 cells): > 100 µM
Open field: standing events, distance, movement rate, time in central and peripheral areas (5xFAD transgenic mice): did not show any alteration
% of Activity, Antiradical Activity [1]: 19.70 ± 1.34%

IC50 (HDAC6): 6.52 ± 0.4 µM
SMILES: O=C(/C=C/c1ccc(C(=O)NO)cc1)NC1C2CC3CC(C2)CC1C3 (centres unmarked) [compound 25, 4-((E)-3-((-Adamantan-2-yl)amino)-3-Oxoprop-1-en-1-yl)-N-Hydroxybenzamide]
IC50 (HEK 293 cells): > 100 µM
Open field: standing events, distance, movement rate, time in central and peripheral areas (5xFAD transgenic mice): did not show any alteration
% of Activity, Antiradical Activity [1]: 43.34 ± 1.42%

Source: PMC8623418, “Novel Multitarget Hydroxamic Acids with a Natural Origin CAP Group against Alzheimer’s Disease: Synthesis, Docking and Biological Evaluation” (Pharmaceutics, 2021)
